Experimental data taken from PubChem BioAssay (NCI).
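Tested at 5 concentrations; 48 h exposure; 96-well plates; endpoints linearly interpolated, else capped at highest concentration. At the GI50, growth is halved. TGI: concentration producing complete growth inhibition.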

How the values were obtained:
Assay in all cases: inhibition of tumour cell growth, NCI panel, 48 h
OVCAR-3 ovarian = test system: OVCAR-3 ovarian
RPMI-8226 leukemia = test system: RPMI-8226 leukemia
A549 NSCLC = test system: A549 NSCLC
OVCAR-5 ovarian = test system: OVCAR-5 ovarian
TK-10 renal = test system: TK-10 renal
SK-MEL-2 melanoma = test system: SK-MEL-2 melanoma
SNB-75 CNS = test system: SNB-75 CNS
SNB-19 CNS = test system: SNB-19 CNS
SK-OV-3 ovarian = test system: SK-OV-3 ovarian
HCT-15 colon = test system: HCT-15 colon
HOP-92 NSCLC = test system: HOP-92 NSCLC
UO-31 renal = test system: UO-31 renal
OVCAR-4 ovarian = test system: OVCAR-4 ovarian
SK-MEL-28 melanoma = test system: SK-MEL-28 melanoma
MOLT-4 leukemia = test system: MOLT-4 leukemia
CAKI-1 renal = test system: CAKI-1 renal
U251 CNS = test system: U251 CNS
BT-549 breast = test system: BT-549 breast
MDA-MB-435 = test system: MDA-MB-435
MCF7 breast = test system: MCF7 breast
NCI-H226 lung = test system: NCI-H226 lung
SK-MEL-5 melanoma = test system: SK-MEL-5 melanoma
NCI-H522 lung = test system: NCI-H522 lung
PC-3 prostate = test system: PC-3 prostate
KM12 colon = test system: KM12 colon
NCI-H460 lung = test system: NCI-H460 lung
HT29 colon = test system: HT29 colon
EKVX NSCLC = test system: EKVX NSCLC
LOX IMVI melanoma = test system: LOX IMVI melanoma
SF-539 CNS = test system: SF-539 CNS
A498 renal = test system: A498 renal
T-47D breast = test system: T-47D breast
OVCAR-8 ovarian = test system: OVCAR-8 ovarian
COLO 205 colon = test system: COLO 205 colon
K-562 leukemia = test system: K-562 leukemia
RXF 393 renal = test system: RXF 393 renal
M14 melanoma = test system: M14 melanoma
HOP-62 NSCLC = test system: HOP-62 NSCLC
HL-60(TB) leukemia = test system: HL-60(TB) leukemia
IGROV1 ovarian = test system: IGROV1 ovarian
MDA-MB-231 breast = test system: MDA-MB-231 breast
HS 578T breast = test system: HS 578T breast
SF-268 CNS = test system: SF-268 CNS
SF-295 CNS = test system: SF-295 CNS
SW-620 colon = test system: SW-620 colon
NCI/ADR-RES ovarian = test system: NCI/ADR-RES ovarian
786-0 renal = test system: 786-0 renal
HCC-2998 colon = test system: HCC-2998 colon
CCRF-CEM leukemia = test system: CCRF-CEM leukemia
DU-145 prostate = test system: DU-145 prostate
UACC-257 melanoma = test system: UACC-257 melanoma
SN12C renal = test system: SN12C renal
MALME-3M melanoma = test system: MALME-3M melanoma
NCI-H23 lung = test system: NCI-H23 lung
SR leukemia = test system: SR leukemia
UACC-62 melanoma = test system: UACC-62 melanoma
HCT-116 colon = test system: HCT-116 colon
ACHN renal = test system: ACHN renal

With `CC(=O)OC(Cn1cncn1)(Cn1cncn1)c1ccc(Cl)cc1Cl` the TGI (OVCAR-3 ovarian) was > 100 µM, the TGI (RPMI-8226 leukemia) was > 100 µM and the TGI (A549 NSCLC) was > 100 µM. For the same compound, the TGI (OVCAR-5 ovarian) was > 100 µM, the TGI (TK-10 renal) was > 100 µM and the TGI (SK-MEL-2 melanoma) was > 100 µM. For the same compound, the TGI (SNB-75 CNS) was > 100 µM, the TGI (SNB-19 CNS) was > 100 µM and the TGI (SK-OV-3 ovarian) was > 100 µM. The TGI (HCT-15 colon) was > 100 µM, the TGI (HOP-92 NSCLC) was > 100 µM and the TGI (UO-31 renal) was > 100 µM. For the same compound, the TGI (OVCAR-4 ovarian) was > 100 µM, the TGI (SK-MEL-28 melanoma) was > 100 µM and the TGI (MOLT-4 leukemia) was > 100 µM. The TGI (CAKI-1 renal) was > 100 µM, the TGI (U251 CNS) was > 100 µM and the TGI (BT-549 breast) was > 100 µM. For the same compound, the TGI (MDA-MB-435) was > 100 µM, the TGI (MCF7 breast) was > 100 µM and the TGI (NCI-H226 lung) was > 100 µM. For the same compound, the TGI (SK-MEL-5 melanoma) was > 100 µM, the TGI (NCI-H522 lung) was > 100 µM and the TGI (PC-3 prostate) was > 100 µM. The TGI (KM12 colon) was > 100 µM, the TGI (NCI-H460 lung) was > 100 µM and the TGI (HT29 colon) was > 100 µM. The TGI (EKVX NSCLC) was > 100 µM, the TGI (LOX IMVI melanoma) was > 100 µM and the TGI (SF-539 CNS) was > 100 µM. For the same compound, the TGI (A498 renal) was > 100 µM, the TGI (T-47D breast) was > 100 µM and the TGI (OVCAR-8 ovarian) was > 100 µM. For the same compound, the TGI (COLO 205 colon) was > 100 µM, the TGI (K-562 leukemia) was > 100 µM and the TGI (RXF 393 renal) was > 100 µM. For the same compound, the TGI (M14 melanoma) was > 100 µM, the TGI (HOP-62 NSCLC) was > 100 µM and the TGI (HL-60(TB) leukemia) was > 100 µM. The TGI (IGROV1 ovarian) was > 100 µM, the TGI (MDA-MB-231 breast) was > 100 µM and the TGI (HS 578T breast) was > 100 µM. The TGI (SF-268 CNS) was > 100 µM, the TGI (SF-295 CNS) was > 100 µM and the TGI (SW-620 colon) was > 100 µM. The TGI (NCI/ADR-RES ovarian) was > 100 µM, the TGI (786-0 renal) was > 100 µM and the TGI (HCC-2998 colon) was > 100 µM. For the same compound, the TGI (CCRF-CEM leukemia) was > 100 µM, the TGI (DU-145 prostate) was > 100 µM and the TGI (UACC-257 melanoma) was > 100 µM.
With `CCOC(=O)/C(C#N)=C\C=C(/Cl)c1ccc(Cl)cc1` the GI50 (OVCAR-3 ovarian) was 7.76 µM, the TGI (OVCAR-3 ovarian) was 28.4 µM and the GI50 (RPMI-8226 leukemia) was 3.71 µM. It also gave a TGI (RPMI-8226 leukemia) of 29.8 µM, a GI50 (A549 NSCLC) of 30.4 µM and a TGI (A549 NSCLC) of 90.4 µM. For the same compound, the GI50 (OVCAR-5 ovarian) was 29.7 µM, the TGI (OVCAR-5 ovarian) was 59.4 µM and the GI50 (TK-10 renal) was 16.2 µM. For the same compound, the TGI (TK-10 renal) was 35.2 µM, the GI50 (SK-MEL-2 melanoma) was 27.7 µM and the TGI (SK-MEL-2 melanoma) was > 91.6 µM. The GI50 (SNB-75 CNS) was 20.5 µM, the TGI (SNB-75 CNS) was 39.9 µM and the GI50 (SNB-19 CNS) was 19.1 µM. For the same compound, the TGI (SNB-19 CNS) was 46.4 µM, the GI50 (SK-OV-3 ovarian) was > 46.8 µM and the TGI (SK-OV-3 ovarian) was > 85.4 µM. For the same compound, the GI50 (HCT-15 colon) was 15.1 µM, the TGI (HCT-15 colon) was 33.6 µM and the GI50 (HOP-92 NSCLC) was 17.5 µM. For the same compound, the TGI (HOP-92 NSCLC) was 47.2 µM, the GI50 (UO-31 renal) was 18 µM and the TGI (UO-31 renal) was 35.4 µM. The GI50 (OVCAR-4 ovarian) was 27.8 µM, the TGI (OVCAR-4 ovarian) was > 76.4 µM and the GI50 (SK-MEL-28 melanoma) was 15.5 µM. The TGI (SK-MEL-28 melanoma) was 32.3 µM, the GI50 (SN12C renal) was 21 µM and the TGI (SN12C renal) was 54.7 µM. The GI50 (MOLT-4 leukemia) was 8.75 µM, the TGI (MOLT-4 leukemia) was > 100 µM and the GI50 (MALME-3M melanoma) was 18.6 µM. It also gave a TGI (MALME-3M melanoma) of 40.5 µM, a GI50 (CAKI-1 renal) of 5.74 µM and a TGI (CAKI-1 renal) of 22.5 µM. For the same compound, the GI50 (U251 CNS) was 17.6 µM, the TGI (U251 CNS) was 32.1 µM and the GI50 (BT-549 breast) was 25.8 µM. It also gave a TGI (BT-549 breast) of 68 µM, a GI50 (MDA-MB-435) of 10.5 µM and a TGI (MDA-MB-435) of 32.9 µM. The GI50 (MCF7 breast) was 25.6 µM, the TGI (MCF7 breast) was > 78.7 µM and the GI50 (NCI-H226 lung) was 27.4 µM. For the same compound, the TGI (NCI-H226 lung) was 83.2 µM, the GI50 (SK-MEL-5 melanoma) was 18.4 µM and the TGI (SK-MEL-5 melanoma) was 39 µM. The GI50 (NCI-H522 lung) was 14 µM, the TGI (NCI-H522 lung) was 39.9 µM and the GI50 (PC-3 prostate) was 15 µM. For the same compound, the TGI (PC-3 prostate) was 33.5 µM, the GI50 (KM12 colon) was 20 µM and the TGI (KM12 colon) was 45.8 µM. For the same compound, the GI50 (NCI-H460 lung) was 31 µM, the TGI (NCI-H460 lung) was > 77.5 µM and the GI50 (HT29 colon) was 24 µM. For the same compound, the TGI (HT29 colon) was > 100 µM, the GI50 (EKVX NSCLC) was 26.5 µM and the TGI (EKVX NSCLC) was 63.9 µM. It also gave a GI50 (LOX IMVI melanoma) of 4.82 µM, a TGI (LOX IMVI melanoma) of 18.6 µM and a GI50 (SF-539 CNS) of 11.3 µM. For the same compound, the TGI (SF-539 CNS) was 33.9 µM, the GI50 (A498 renal) was 32.3 µM and the TGI (A498 renal) was > 79.3 µM. The GI50 (T-47D breast) was 2.83 µM, the TGI (T-47D breast) was 10.7 µM and the GI50 (OVCAR-8 ovarian) was 19.4 µM. For the same compound, the TGI (OVCAR-8 ovarian) was 42.1 µM, the GI50 (COLO 205 colon) was 19.1 µM and the TGI (COLO 205 colon) was > 48 µM. For the same compound, the GI50 (K-562 leukemia) was 12.9 µM, the TGI (K-562 leukemia) was > 64.3 µM and the GI50 (RXF 393 renal) was 21.6 µM. The TGI (RXF 393 renal) was 45.9 µM, the GI50 (NCI-H23 lung) was 12.2 µM and the TGI (NCI-H23 lung) was 26.9 µM. It also gave a GI50 (M14 melanoma) of 14.8 µM, a TGI (M14 melanoma) of 31.4 µM and a GI50 (SR leukemia) of 4.78 µM. The TGI (SR leukemia) was > 100 µM, the GI50 (HOP-62 NSCLC) was 17.5 µM and the TGI (HOP-62 NSCLC) was 35.2 µM. It also gave a GI50 (IGROV1 ovarian) of 5.78 µM, a TGI (IGROV1 ovarian) of 27.1 µM and a GI50 (MDA-MB-231 breast) of 22.1 µM. For the same compound, the TGI (MDA-MB-231 breast) was 45.9 µM, the GI50 (HS 578T breast) was 22.7 µM and the TGI (HS 578T breast) was 60.7 µM. For the same compound, the GI50 (SF-268 CNS) was 27.9 µM, the TGI (SF-268 CNS) was > 77 µM and the GI50 (SF-295 CNS) was 19 µM. The TGI (SF-295 CNS) was 38.1 µM, the GI50 (SW-620 colon) was 5.94 µM and the TGI (SW-620 colon) was 26.3 µM. The GI50 (NCI/ADR-RES ovarian) was 22 µM, the TGI (NCI/ADR-RES ovarian) was 44.6 µM and the GI50 (UACC-62 melanoma) was 18.7 µM. The TGI (UACC-62 melanoma) was 38.9 µM, the GI50 (786-0 renal) was 19.4 µM and the TGI (786-0 renal) was 37.4 µM. For the same compound, the GI50 (HCT-116 colon) was 11.2 µM, the TGI (HCT-116 colon) was 24.3 µM and the GI50 (HCC-2998 colon) was 16.1 µM. The TGI (HCC-2998 colon) was 31.1 µM, the GI50 (ACHN renal) was 18.3 µM and the TGI (ACHN renal) was 32.6 µM. For the same compound, the GI50 (CCRF-CEM leukemia) was 0.484 µM, the TGI (CCRF-CEM leukemia) was > 100 µM and the GI50 (DU-145 prostate) was 12.9 µM. It also gave a TGI (DU-145 prostate) of 25.5 µM, a GI50 (UACC-257 melanoma) of 17.6 µM and a TGI (UACC-257 melanoma) of 32.6 µM.
